{"source": "patent US20150284399A1", "about": "“PROCESSES FOR THE PREPARATION OF S1P1 RECEPTOR MODULATORS AND CRYSTALLINE FORMS THEREOF” (Arena Pharmaceuticals, Inc., priority 2010, published 2015)", "key": {"[1]": {"experiment": "Dynamic moisture sorption (DMS)", "format": "physicochemical", "conditions": "crystalline form", "method": "Samples are prepared for dynamic moisture-sorption analysis by placing ˜5 mg to ˜20 mg of compound in a tarred sample holder on the VTI balance. The instrument is a dynamic moisture-sorption analyzer, VTI Corporation, SGA-100. A drying step is run at 40° C. and ˜1% RH for 1 h. The isotherm temperature is 25° C. A % weight change over 10 min (5 weight readings) of dm/dt=0.010 or 2 h, whichever occurs first, is required before continuing to the next step. The water content of the sample equilibrated as described above was determined from 30% RH to 90% RH and then back down to 10% RH."}, "[2]": {"target": "T1, S1P1 receptor (Homo sapiens, UniProt P21453)", "T1 construct": "expressed in transfected cells; host or cells: CHO-K1 (ATCC CCL-61), stably transfected", "T1 sequence (P21453 whole entry)": "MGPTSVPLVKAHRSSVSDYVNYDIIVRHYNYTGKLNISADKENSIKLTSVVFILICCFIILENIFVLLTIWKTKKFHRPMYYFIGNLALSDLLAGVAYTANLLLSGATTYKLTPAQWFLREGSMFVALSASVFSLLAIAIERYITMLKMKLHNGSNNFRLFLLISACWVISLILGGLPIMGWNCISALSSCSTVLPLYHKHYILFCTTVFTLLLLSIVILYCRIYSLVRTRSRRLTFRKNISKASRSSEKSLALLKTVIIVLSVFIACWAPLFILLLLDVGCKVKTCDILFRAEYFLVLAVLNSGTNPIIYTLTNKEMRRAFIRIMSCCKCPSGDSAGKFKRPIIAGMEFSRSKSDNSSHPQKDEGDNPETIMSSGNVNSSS", "experiment": "HTRF assay for direct cAMP measurement", "format": "cell-based", "conditions": "recombinant CHO-K1 cells stably transfected with S1P1; agonist detected as decrease of cAMP concentration", "from_the_text": "Compounds were screened for agonists of the S1P1 receptor (e.g., human S1P1 receptor) using the HTRF® assay for direct cAMP measurement (Gabriel et al., Assay and Drug Development Technologies, 1:291-303, 2003) and recombinant CHO-K1 cells stably transfected with S1P1. CHO-K1 cells were obtained from ATCC® (Manassas, Va.; Catalog #CCL-61). An agonist of the S1P1 receptor was detected in the HTRF® assay for direct cAMP measurement as a compound which decreased cAMP concentration. HTRF® assay also was used to determine EC50 values for S1P1 receptor agonists.\nHTRF® assay kit was purchased from Cisbio-US, Inc. (Bedford, Mass.; Catalog #62AM4PEC). […] The specific signal (i.e., fluorescence resonance energy transfer, FRET) is inversely proportional to the concentration of unlabeled cAMP in the standard or sample.\nThe fluorescence ratio (665 nm/620 nm) of the standards (0.17 to 712 nM cAMP) included in the assay was calculated and used to generate a cAMP standard curve according to the kit manufacturer's instructions. The fluorescence ratio of the samples (test compound or compound buffer) was calculated and used to deduce respective cAMP concentrations by reference to the cAMP standard curve. […]\nHTRF® readout was accomplished using a PHERAstar (BMG LABTECH Inc., Durham, N.C.) or EnVision™ (PerkinElmer, Fremont Calif.) microplate reader."}, "[3]": {"tested_on": "Male Sprague-Dawley rats", "experiment": "Rat Peripheral Lymphocyte Lowering (PLL) assay", "format": "in vivo", "conditions": "1.0 mg/kg oral dose in 0.5% methyl cellulose in water; 5 h post-dose; vs vehicle; FIG. 16", "method": "Male Sprague-Dawley rats (Charles River Laboratories, Hollister, Calif.) were housed and maintained in humidity (40 to 60%) and temperature (68 to 72° F.) controlled facility on a 12 h: 12 h light/dark cycle (lights on at 6:30 am) with free access to food (Harlan Teklad, Orange, Calif., Rodent Diet 8604) and water. Rats were allowed (approximately) one week of habituation to the animal facility before testing.\nRats were given a 1.0 mg/kg oral dose of (R)-2-(9-chloro-7-(4-isopropoxy-3-(trifluoromethyl)benzyloxy)-2,3-dihydro-1H-pyrrolo[1,2-a]indol-1-yl)acetic acid or dosing vehicle (0.5% methyl cellulose in water) in a total volume of 1 mL/kg. Peripheral blood samples were collected at 5 h post-dose. Blood was collected via indwelling catheter. A complete cell count (CBC), including lymphocyte count, was obtained using a CELL-DYN® 3700 (Abbott Laboratories, Abbott Park, Ill.) instrument. Results are presented in FIG. 16, in which peripheral blood lymphocyte (PBL) count is shown for the 5 hour group."}}}
{"smiles": "CC(C)Oc1ccc(COc2ccc3c(c2)c(Cl)c2n3CC[C@@H]2CC(=O)O)cc1C(F)(F)F", "note": "[(R)-2-(9-chloro-7-(4-isopropoxy-3-(trifluoromethyl)benzyloxy)-2,3-dihydro-1H-pyrrolo[1,2-a]indol-1-yl)acetic acid]", "values": [{"measurement": "hygroscopicity (DMS)", "setting": "[1]; 10% RH to 90% RH at 25° C.", "value": "non-hygroscopic"}, {"measurement": "DMS weight gain over the full range of % RH tested", "setting": "[1]; 10% RH to 90% RH at 25° C., listed as Crystalline form of (R)-2-(9-chloro-7-(4-isopropoxy-3-(trifluoromethyl)benzyloxy))", "value": "FIG. 3: gains less than about 0.1% weight over the full range"}, {"measurement": "DMS weight gain over the full range of % RH tested", "setting": "[1]; 10% RH to 90% RH at 25° C., listed as crystalline form of (R)-2-(9-chloro-7-(4-isopropoxy-3-(trifluoromethyl)benzyloxy))", "value": "less than 0.1 % weight"}, {"measurement": "DMS maximum weight gain", "setting": "[1]; adsorption phase of the DMS cycle at about 70% RH", "value": "about 0.06%"}, {"measurement": "EC50", "setting": "[2]", "value": 0.028, "unit": "nM"}, {"measurement": "peripheral blood lymphocyte (PBL) lowering (lymphopenia)", "setting": "[3]", "value": "exhibited activity for inducing PBL lowering (lymphopenia)"}]}
